Assays:
Siglec-2 (CD22) [1] = molecular target: T1, Siglec-2 (CD22) (Homo sapiens, UniProt P20273); experiment: known affinity assay (Bock et al., Methods Mol. Biol. 2006), 'Literature assay'; type: binding; settings: relative Inhibitory Potency; BPC Neu5Ac = 1
T1 sequence (P20273 20-847): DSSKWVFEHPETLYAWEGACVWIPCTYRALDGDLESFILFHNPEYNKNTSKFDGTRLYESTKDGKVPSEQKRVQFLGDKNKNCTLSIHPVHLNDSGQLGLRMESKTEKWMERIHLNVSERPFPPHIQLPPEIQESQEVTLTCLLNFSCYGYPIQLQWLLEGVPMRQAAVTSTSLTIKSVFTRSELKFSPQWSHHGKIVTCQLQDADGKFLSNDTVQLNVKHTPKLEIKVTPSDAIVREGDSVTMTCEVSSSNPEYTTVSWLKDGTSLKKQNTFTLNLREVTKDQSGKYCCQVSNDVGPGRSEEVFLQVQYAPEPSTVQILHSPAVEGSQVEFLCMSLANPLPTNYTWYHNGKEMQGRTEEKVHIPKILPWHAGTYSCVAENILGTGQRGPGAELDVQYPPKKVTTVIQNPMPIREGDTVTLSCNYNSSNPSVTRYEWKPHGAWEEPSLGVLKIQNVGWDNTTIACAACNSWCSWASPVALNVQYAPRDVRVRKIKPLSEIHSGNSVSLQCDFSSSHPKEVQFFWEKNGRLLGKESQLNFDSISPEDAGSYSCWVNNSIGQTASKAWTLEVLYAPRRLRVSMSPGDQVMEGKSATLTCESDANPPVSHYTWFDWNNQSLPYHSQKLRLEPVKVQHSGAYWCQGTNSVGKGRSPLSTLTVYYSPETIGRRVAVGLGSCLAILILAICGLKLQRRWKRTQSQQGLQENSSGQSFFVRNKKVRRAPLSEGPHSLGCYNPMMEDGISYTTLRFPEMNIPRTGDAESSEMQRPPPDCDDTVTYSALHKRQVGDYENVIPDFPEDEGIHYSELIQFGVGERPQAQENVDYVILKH
Description: The affinity of a number of dimers was measured using a known assay (Bock et al., Methods Mol. Biol. 2006, 347, 359-375). […] Exact values were undeterminable, however, owing to fluctuating values. In order to be able to determine the affinity of the new derivatives reliably, a new assay was drawn up. For this assay, compound 155 was prepared.

Siglec-2 (CD22) [2] = molecular target: T1, Siglec-2 (CD22); experiment: new affinity assay: displacement of biotinylated compound 155 from sialidase-treated Daudi cells, FACS with streptavidin-PE; type: binding; parameters: endogenous in cells; host or cells: Daudi (human B-cell lymphoma line); settings: for rIP: Table II, rIP values set relative to compound 38, Daudi cells, displacement of compound 155; for rIP (New assay): relative Inhibitory Potency from IC50, human B-cell lymphoma line Daudi, compound 38 = 1
In short: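 Sialidase-treated Daudi cells preincubated on ice 15 min with inhibitor (1 mM to 1×10^−7 mM), then 20 min with biotinylated probe (4 μM as added); bound probe detected by streptavidin-PE flow cytometry. IC50 converted to relative inhibitory potency (rIP) against a reference substance.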

SMILES	rIP (Literature assay) (Siglec-2 (CD22) [1])	rIP (Siglec-2 (CD22) [2])	rIP (New assay) (Siglec-2 (CD22) [2])
CO[C@]1(C(=O)[O-])C[C@H](O)[C@@H](NC(C)=O)[C@H]([C@H](O)[C@H](O)CNC(=O)c2ccc(-c3ccccc3)cc2)O1.[Na+] [BPC Neu 5Ac, reference compound]	1	–	–
CC(=O)N[C@H]1[C@H]([C@H](O)[C@H](O)CO)O[C@@](OCCCSCCNC(=O)c2ccc(C(=O)NCCSCCCO[C@]3(C(=O)[O-])C[C@H](O)[C@@H](NC(C)=O)[C@H]([C@H](O)[C@H](O)CO)O3)cc2)(C(=O)[O-])C[C@@H]1O.[Na+].[Na+] [Compound 38]	~1-3	1	1
CC(=O)N[C@H]1[C@H]([C@H](O)[C@H](O)CNC(=O)c2ccc(-c3ccccc3)cc2)O[C@@](OCCCSCCNC(=O)c2ccc(C(=O)NCCSCCCO[C@]3(C(=O)[O-])C[C@H](O)[C@@H](NC(C)=O)[C@H]([C@H](O)[C@H](O)CNC(=O)c4ccc(-c5ccccc5)cc4)O3)cc2)(C(=O)[O-])C[C@@H]1O.[Na+].[Na+] [Compound 21]	>2000	2979	2979
CC(=O)N[C@H]1[C@H]([C@H](O)[C@H](O)CNC(=O)c2ccc(-c3ccccc3)cc2)O[C@@](OCCCSCCNC(=O)CSSCC(=O)NCCSCCCO[C@]2(C(=O)[O-])C[C@H](O)[C@@H](NC(C)=O)[C@H]([C@H](O)[C@H](O)CNC(=O)c3ccc(-c4ccccc4)cc3)O2)(C(=O)[O-])C[C@@H]1O.[Na+].[Na+] [Compound 13]	–	251	–
CC(=O)Nc1ccc(C(=O)NC[C@@H](O)[C@@H](O)[C@@H]2O[C@@](OCCCSCCNC(=O)c3ccc(C(=O)NCCSCCCO[C@]4(C(=O)[O-])C[C@H](O)[C@@H](NC(C)=O)[C@H]([C@H](O)[C@H](O)CNC(=O)c5ccc(NC(C)=O)cc5)O4)cc3)(C(=O)[O-])C[C@H](O)[C@H]2NC(C)=O)cc1.[Na+].[Na+] [Compound 73]	–	13	–
CC(=O)N[C@H]1[C@H]([C@H](O)[C@H](O)CNC(=O)C#Cc2ccccc2)O[C@@](OCCCSCCNC(=O)c2ccc(-c3ccc(C(=O)NCCSCCCO[C@]4(C(=O)[O-])C[C@H](O)[C@@H](NC(C)=O)[C@H]([C@H](O)[C@H](O)CNC(=O)C#Cc5ccccc5)O4)cc3)cc2)(C(=O)[O-])C[C@@H]1O.[Na+].[Na+] [Compound 129]	–	21	–

Reference: patent US9260467B2, “Sialic acid dimers” (priority 2011, dated 2016)
